Tested on: NIH3T3 cells
Test: MTS formazan dye reduction cytotoxicity/cell viability assay
Method: Standard cytotoxicity/cell viability assays were performed using the CellTiter-96 Aqueous one solution MTS cell proliferation assay (Promega Inc) and using the standard conditions detailed in the manufacturer's instructions.
In addition, we also wanted to ensure that the observations made using the LUCIA were not due to any effects on luciferase expression or on the luciferase assay itself. For this reason, we looked at the effect of adding wortmannin and LY294002 to NIH3T3 cells containing the already integrated R229-Luc provirus.

| Structure (SMILES) | cellular cytotoxicity (percentage of viable cells remaining after drug treatment) (mouse) | cellular cytotoxicity (percentage of viable cells remaining after drug treatment) (MTS assay, concentrations used in LUCIA, FIG. 4C) |
| --- | --- | --- |
| O=c1cc(N2CCOCC2)oc2c(-c3ccccc3)cccc12 [LY294002] | slight cytotoxic effect at high concentrations |  |
| COC[C@H]1OC(=O)c2coc3c2[C@@]1(C)C1=C(C3=O)[C@@H]2CCC(=O)[C@@]2(C)C[C@H]1OC(C)=O [wortmannin] |  | slight cytotoxic effect at high concentrations |
